Reference: BindingDB's records for doi:10.1021/jm010496a (Pfizer, 2002)

Biological target: Fructose-1,6-bisphosphatase 1 (Sus scrofa) (UniProt P00636)
Assay: Concentration required for 50% Inhibition against recombinant wild type pig enzyme (F16BP) Fructose-1,6-bisphosphatase

Fructose-1,6-bisphosphatase 1 (Sus scrofa), sequence (P00636 whole entry, looked up): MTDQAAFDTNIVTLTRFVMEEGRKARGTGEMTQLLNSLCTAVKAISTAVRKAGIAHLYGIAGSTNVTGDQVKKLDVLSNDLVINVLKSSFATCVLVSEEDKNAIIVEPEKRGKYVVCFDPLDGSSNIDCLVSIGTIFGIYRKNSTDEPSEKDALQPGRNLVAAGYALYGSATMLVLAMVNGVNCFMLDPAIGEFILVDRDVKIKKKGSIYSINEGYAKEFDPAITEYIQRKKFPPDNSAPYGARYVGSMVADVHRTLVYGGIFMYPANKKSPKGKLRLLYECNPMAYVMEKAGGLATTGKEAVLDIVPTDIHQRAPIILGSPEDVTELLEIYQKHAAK

IC50: 9.5 µM
SMILES: CCOc1cc2nc(CN(C)C)nc(Nc3cccc(-c4csc(C(N)=O)n4)c3)c2cc1OCC [4-[3-(2-Dimethylaminomethyl-6,7-diethoxy-quinazolin-4-ylamino)-phenyl]-thiazole-2-carboxylic acid amide]
